# According to patent US4921871A, “Enolamides, pharmaceutical compositions and methods of use thereof for treating inflammation” (Warner-Lambert Company, priority 1987, dated 1990):
# Test system: Human Leukocyte Lipoxygenase
# Experiment: Human Leukocyte Lipoxygenase Assay (LDA-H)
# Format: biochemical
# Details: 1.00 E -5 M
# Description: Whole blood is collected from normal volunteers and spun in a refrigerated centrifuge for four minutes at 1°-6° C. at 3800 g. The buffy coat is manually separated and washed twice with chilled 0.83% NH4 Cl and centrifuged at 1000 RPM for ten minutes at 4° C. The white cell is suspended in culture media-EMEM supplemented with 6% Agamma human serum, tricine buffer, and neomycin and recentrifuged at 1000 g to yield a pellet containing the leukocytes used for the preparation of the acetone pentane powder.
# The acetone-pentane powder is prepared utilizing a modification of the procedure reported for human platelet lipoxygenase. See Siegel, et al, Arachidonate Metabolism via Lipoxygenase and 12-L-hydro-peroxy-5 Eicosatetraenoic Acid Peroxidase Sensitive to Antiinflammatory Drugs, Proc. Natl. Acad. Sci., U.S.A. 77:308, 1980 and D. P. Wallach and V. R. Brown, A Novel Preparation of Human Platlet Lipoxygenase, Biochem. Biophys. Acta. 663:361, 1981. Buffy coat prepared above is resuspended in 5-7 volumes of cold 0.1M Tris buffer, pH 7.4 containing 0.154M NaCl. The suspension is centrifuged at 13,300 g for ten minutes at 4° C. The resultant pellet is retained, resuspended in five volumes of cold acetone, recentrifuged at 13,300 g and resuspended in five volumes of cold pentane. The pentane suspension is centrifuged for ten minutes at 13,300 g to give a pellet which is dried in the cold under vacuum with periodic pulverization. The dry powder is stable for several weeks when stored at -80° C.
# Enzyme stock solution is prepared in the following manner. About 15 mg of the acetone-pentane powder is suspended in 4 ml of cold tris buffer (0.1M, pH 7.4), allowed to stand for five minutes, and homogenized thoroughly. The homogenate is sonicated three times for 15 seconds each time, diluted to 7 ml with cold tris buffer (0.1M, pH 7.4), and centrifuged at 4° C. for 60 minutes at 13,300 g. The supernatent is retained and diluted to a total of 10 ml with cold tris buffer (0.1M, pH 7.4) to give the stock enzyme solution. Additional dilutions of 2-50 fold are done as necessary to locate optimal enzyme reaction rate in the assay described below.
# Substrate solution is prepared at 100 μM or 1.0 μM concentrations of arachidonic acid or linoleic acid in 0.1M tris buffer, pH 9.0 containing 20% ethanol.
# The enzyme reaction is followed spectrophotometrically by the appearance of a conjugated diene product at 234 nm. The reaction is monitored at 24° C. using a Gilford Model 2600 spectrophotometer. […] The effects of inhibitors on the reaction are compared with control reactions run under indentical conditions. Routinely, each compounds of the present invention is incubated with the enzyme for five minutes prior to addition of substrate to initiate the reaction. Inhibition expressed as IC50 as molar concentration of the compound required to reduce reaction rate to 50% control.
row,"LDAH, % Inhibition [%]",Structure (SMILES)
1,0.0,"COc1ccc(CCc2ccc(NC(=O)C(=O)C3=C(O)c4ccccc4S(=O)(=O)C3)cc2)cc1OC [Example 3, N-[4-[2-(3,4-Dimethoxyphenyl)ethyl)phenyl]-4-hydroxy-α-oxo-2H-1-benzothiopyran-3-acetamide, 1,1-dioxide]"

# Same assay, conditions: 2.50 E -5 M
row,"LDAH, % Inhibition [%]",Structure (SMILES)
1,0.0,"COc1ccc(CCc2ccc(NC(=O)C3Oc4cc5ccccc5cc4C3=O)cc2)cc1OC (centres unmarked) [Example 101, Naphtho[2,3-b]furan-2-carboxamide, N-[4-[2-(3,4-dimethoxyphenyl)ethyl]phenyl]-2,3-dihydroxy-3-oxo]"
2,0.0,"O=C(Nc1ccc(Cc2ccc(O)c(O)c2)cc1)C1CS(=O)(=O)c2ccccc2C1=O (centres unmarked) [Example 14, N-[4-[(3,4-Dihydroxyphenyl)methyl]phenyl]-3,4-dihydro-4-oxo-2H-1-benzothiopyran-3-carboxamide, 1,1-dioxide]"
3,0.0,"CCCCCCCCc1ccc(NC(=O)C2CS(=O)(=O)c3ccccc3C2=O)cc1 (centres unmarked) [Example 59, 3,4-Dihydro-N-(4-octylphenyl)-4-oxo-2H-1-benzothiopyran-3-carboxamide, 1,1-dioxide]"
4,0.0,"O=C(Nc1ccc(CCc2ccc3ccccc3c2)cc1)C1=C(O)c2ccccc2S(=O)(=O)C1 [Example 51, 4-Hydroxy-N-[4-[2-(2-naphthalenyl)ethyl]phenyl]-2H-1-benzothiopyran-3-carboxamide, 1,1-dioxide]"
5,0.0,"COc1ccc(CCc2ccc(NC(=O)C(=O)C3Oc4cc5ccccc5cc4C3=O)cc2)cc1OC (stereo not drawn) [Example 117, Naptho[2,3-b]furan-2-acetamide, N-[4-[2-(3,4-dimethoxyphenyl)ethyl]phenyl]-2,3-dihydro-α,3dioxo]"
6,0.0,"COc1ccc(CCc2ccc(NC(=O)C(=O)C3=C(O)c4ccccc4S(=O)(=O)C3)cc2)cc1OC [Example 3, N-[4-[2-(3,4-Dimethoxyphenyl)ethyl)phenyl]-4-hydroxy-α-oxo-2H-1-benzothiopyran-3-acetamide, 1,1-dioxide]"
7,0.0,"O=C(Nc1ccc(CCc2ccc(O)c(O)c2)cc1)C1Oc2c(n(-c3ccccc3)c3ccc(O)cc23)C1=O (centres unmarked) [Example 163, 2H-Furo[3,2-b]indole-2-carboxamide, N-[4-[2-(3,4-dihydroxyphenyl)ethyl]phenyl]-3,4-dihydro-7-hydroxy-3-oxo-4-phenyl]"
8,0.0,"O=C(Nc1ccc(CCCCc2ccc(O)c(O)c2)cc1)C1CS(=O)(=O)c2ccccc2C1=O (centres unmarked) [Example 23, N-[4-[4-(3,4-Dihydroxyphenyl)butyl]phenyl]-3,4-dihydro-4-oxo-2H-1-benzothiopyran-3-carboxamide, 1,1-dioxide]"
9,0.0,CCCCOc1ccc(CCc2ccc(NC(=O)C3CS(=O)(=O)c4ccccc4C3=O)cc2)cc1 (centres unmarked) [Example 48]

# Same assay, conditions: 8.00 E -5 M
row,"LDAH, % Inhibition [%]",Structure (SMILES)
1,0.0,"CCCCCCc1ccc(NC(=O)C2CS(=O)(=O)c3ccccc3C2=O)cc1 (centres unmarked) [Example 58, N-(4-Hexylphenyl)-3,4-dihydro-4-oxo-2H-1-benzothiopyran-3-carboxamide, 1-1-dioxide]"
2,0.0,COc1ccccc1CCc1ccc(NC(=O)C2=C(O)c3ccccc3S(=O)(=O)C2)cc1 [Example 37]
3,0.0,"CCOC(=O)c1ccc(CCc2ccc(NC(=O)C3CS(=O)(=O)c4ccccc4C3=O)cc2)cc1 (centres unmarked) [Example 47, 4-[2-[4-[[(3,4-Dihydro-4-oxo-2H-1-benzothiopyran-3-yl)carbonyl]amino]phenyl]ethyl]benzoic acid, ethyl ester, 1,1-dioxide]"
4,0.0,Cc1ccc(CCc2ccc(NC(=O)C3CS(=O)(=O)c4ccccc4C3=O)cc2)cc1 (centres unmarked) [Example 45]
5,0.0,Cc1ccccc1CCc1ccc(NC(=O)C2=C(O)c3ccccc3S(=O)(=O)C2)cc1 [Example 43]
6,0.0,O=C(Nc1ccc(CCc2cccc(O)c2)cc1)C1CS(=O)(=O)c2ccccc2C1=O (centres unmarked) [Example 82]
7,0.0,"COc1ccc(CCc2ccc(NC(=O)C(=O)c3oc4cc(OC)c(OC)cc4c3O)cc2)cc1OC [Example 115, 2-Benzofuranacetamide, N-[4-[2-(3,4-dimethoxyphenyl)ethyl]phenyl]-3-hydroxy-5,6-dimethoxy-α-oxo]"
8,0.0,"COc1ccc(CCc2ccc(NC(=O)C3CS(=O)(=O)c4ccccc4C3=O)cc2)cc1NC(C)=O (centres unmarked) [Example 50, N-[4-[2-(3-Acetylamino-4-methoxy)ethyl]phenyl]-3,4-dihydro-4-oxo-2H-1-benzothiopyran-3-carboxamide, 1,1-dioxide]"

# Same assay, conditions: conjugated diene at 234 nm, pH 9.0, 24 °C; read-out: LDAH, concentration for 50% inhibition (IC)
row,IC50 [µM],Structure (SMILES)
1,0.0079,"CCCCCCCCCCc1ccc(NC(=O)C(=O)c2oc3cc(OC)c(OC)cc3c2O)cc1 [Example 119, 2-Benzofuranacetamide, N-[4-decylphenyl]-3-hydroxy-5,6-dimethoxy-α-oxo]"
2,13,O=C(Nc1ccc(CCCc2ccc(O)c(O)c2)cc1)C1CS(=O)(=O)c2ccccc2C1=O (centres unmarked) [Example 22]
